From PMC8146637, “Enhanced Bioavailability and Efficacy of Silymarin Solid Dispersion in Rats with Acetaminophen-Induced Hepatotoxicity” (Pharmaceutics, 2021)

What was measured:
[1] = Intestinal permeability of silybin, Ussing chamber; details: male, Wistar, rat, pH 7.4
Method: Male Wistar rats weighing 225–270 g (eight weeks old, n = 28) were purchased from Samtako Co. (Osan, Korea). Rats were housed in a 12-h light/dark cycle, and food and water were supplied ad libitum for one week prior to animal studies. […] Rats were fasted for 16 h, but had free access to water before study commencement. […] A proximal jejunum section (approximately 10 cm) was excised and washed in prewarmed HBSS (pH 7.4). Segments were mounted on a tissue holder of a Navicyte Easy Mount Ussing Chamber (Warner Instruments, Holliston, MA, USA), with a surface area of 0.76 cm², and acclimated in HBSS for 15 min with continuous oxygenation (95% O₂/5% CO₂ gas). […]
To investigate whether efflux transporters were involved in this process, an apical to basal (A to B) and a basal to apical (B to A) transport of 20 μM silybin in the presence of representative inhibitors of P-gp, MRPs, and BCRPs such as 20 μM cyclosporine A (CsA), 100 μM MK-571, and 20 μM fumitremorgin C (FTC), respectively, were measured in a proximal jejunum section from control rats (n = 4) [45, 46]. The effects of TPGS (0.01–1 mg/mL) on silybin permeability were also measured in a proximal jejunum section from control rats (n = 4) using the above method. […]

rat jejunal segments = assay: Lucifer yellow permeability (intestinal integrity), Ussing chamber; type: in vitro ADME
Method: Segments were mounted on a tissue holder of a […] […] Lucifer yellow fluorescence in 200 μL sample aliquots was measured using a fluorescence spectrophotometer (Infinite 200 PRO, Tecan, Switzerland) at an excitation wavelength of 425 nm and emission wavelength of 535 nm.

[2] = Effect of various excipients on silymarin solubility; type: physicochemical
Method: The effect of various excipients on the silymarin solubility was measured. […] Mixtures were centrifuged at 16,000× g for 10 min and supernatants filtered through a membrane filter (pore size; 0.22 μm). Filtrates were diluted in 85% acetonitrile and silybin concentrations analyzed using a liquid chromatography-tandem mass spectrometry (LC-MS/MS) system.

[3] = Liver distribution of silybin after repeated oral administration in APAP-induced hepatotoxic rats; details: rat, in vivo
Method: To investigate the liver distribution of silymarin and silymarin-SD, blood samples were collected from the abdominal artery at 0.5, 1, 2, 4, and 24 h after the repeated oral administration of silymarin (20 mg/kg as silybin, n = 20) or silymarin-SD (20 mg/kg as silybin, n = 20), according to the dosing schedule. Immediately after blood sampling, the liver was excised, rinsed in saline, and homogenized in nine volumes of saline, using a tissue homogenizer. Aliquots (50 μL) of 10% liver homogenate samples were stored at −80 °C for silybin assay.
Silybin concentrations in plasma and 10% liver homogenate samples were analyzed. Samples (100 μL) were added to 300 μL IS (naringenin, 20 ng/mL in acetonitrile) and the mixture was vigorously mixed for 10 min, followed by centrifugation at 16,000× g for 5 min. Supernatant aliquots (5 μL) were directly injected into an LC-MS/MS system.

[4] = in vivo; cited from earlier work

Row | increase in silymarin solubility in the presence of excipient [2] | Molecule | further results
1 |  | COc1cc(C2Oc3cc([C@H]4Oc5cc(O)cc(O)c5C(=O)[C@@H]4O)ccc3OC2CO)ccc1O (stereo partly shown) [silybin, Silybin] | efflux ratio at 2 h, 20 μM [1]: 5.8
2 |  | Lucifer yellow [reference compound] | Papp,AB of Lucifer yellow (rat jejunal segments; intestinal segment of APAP-induced hepatotoxic rats): 0.28 ×10⁻⁶ cm/s
3 | 2~3 fold | Poloxamer 407 | 
4 |  | Silymarin | Papp,AB of Lucifer yellow in the presence of silymarin or silymarin-SD (rat jejunal segments): not different; time course of liver silybin concentration [3]: decreased sharply for 4 h; bioavailability [4]: 23–47%
5 | 2~3 fold | Tween 80 | 
6 | less than 1.5 fold | hydroxypropyl cellulose [HPC] | 
7 | 2~3 fold | pluronic F127 | 
8 | highest increase | polyvinylpyrrolidone [PVP] | 
